Assay results taken from patent publication US7169803B2, “N-substituted prodrugs of fluorooxindoles” (Bristol-Myers Squibb Company, priority 2004, dated 2007).
Where a name gives a salt, the structure may show the parent alone.

System: not given
Test: not given
Conditions: not given
In the case of `COc1ccc(Cl)cc1[C@]1(F)C(=O)N(C(=O)N[C@@H](CCC(=O)O)C(=O)O)c2cc(C(F)(F)F)ccc21` [Example 37, (S)-2-((S)-3-(5-chloro-2-methoxyphenyl)-3-fluoro-2-oxo-6-(trifluoromethyl)-indoline-1-carboxamido)pentanedioic acid], the melting point was 90 to 94 °C. With `CCN(CC)CCN(CC)Cc1ccc(C(=O)OCN2C(=O)[C@@](F)(c3cc(Cl)ccc3OC)c3ccc(C(F)(F)F)cc32)cc1` (as salt: hydrochloride) [Example 29, (S)-(3-(5-chloro-2-methoxyphenyl)-3-fluoro-2-oxo-6-(trifluoromethyl)indolin-1-yl)methyl 4-(((2-(diethylamino)ethyl)(ethyl)amino)methyl)benzoate, hydrochloride] the melting point was 155 to 160 °C. In the case of `CCN(CC)Cc1cccc(C(=O)OCN2C(=O)[C@@](F)(c3cc(Cl)ccc3OC)c3ccc(C(F)(F)F)cc32)c1` (as salt: hydrochloride) [Example 28, (S)-(3-(5-chloro-2-methoxyphenyl)-3-fluoro-2-oxo-6-(trifluoromethyl)indolin-1-yl)methyl 3-((diethylamino)methyl)benzoate, hydrochloride], the melting point was 195 to 198 °C (dec.). `CCN(CC)Cc1ccc(C(=O)OCN2C(=O)[C@@](F)(c3cc(Cl)ccc3OC)c3ccc(C(F)(F)F)cc32)cc1` (as salt: trifluoroacetate) [Example 27, (S)-(3-(5-chloro-2-methoxyphenyl)-3-fluoro-2-oxo-6-(trifluoromethyl)indolin-1-yl)methyl 4-((diethylamino)methyl)benzoate, trifluoroacetate] gave a melting point of 75 to 80 °C. Molecule `COc1ccc(Cl)cc1[C@]1(F)C(=O)N(C(=O)N[C@@H](Cc2ccccc2)C(=O)O)c2cc(C(F)(F)F)ccc21` [Example 41, (S)-2-((S)-3-(5-chloro-2-methoxyphenyl)-3-fluoro-2-oxo-6-(trifluoromethyl)-indoline-1-carboxamido)-3-phenylpropanoic acid] has a melting point of 98 to 102 °C. `COc1ccc(Cl)cc1[C@]1(F)C(=O)N(C(=O)N[C@@H](C)C(=O)O)c2cc(C(F)(F)F)ccc21` [Example 35, (S)-2-((S)-3-(5-chloro-2-methoxyphenyl)-3-fluoro-2-oxo-6-(trifluoromethyl)-indoline-1-carboxamido)propanoic acid] gave a melting point of 103 to 107 °C. Molecule `COc1ccc(Cl)cc1[C@]1(F)C(=O)N(C(=O)NCCC(=O)O)c2cc(C(F)(F)F)ccc21` [Example 42, (S)-3-(3-(5-chloro-2-methoxyphenyl)-3-fluoro-2-oxo-6-(trifluoromethyl)-indoline-1-carboxamido)propanoic acid] has a melting point of 72 to 76 °C. In the case of `COc1ccc(Cl)cc1[C@]1(F)C(=O)N(COC(=O)c2cccc(CN3CCN(C)CC3)c2)c2cc(C(F)(F)F)ccc21` (as salt: hydrochloride) [Example 26], the melting point was 190 to 193 °C (dec.). With `CCN(CC)CCN(CC)Cc1cccc(C(=O)OCN2C(=O)[C@@](F)(c3cc(Cl)ccc3OC)c3ccc(C(F)(F)F)cc32)c1` (as salt: hydrochloride) [Example 30, (S)-(3-(5-chloro-2-methoxyphenyl)-3-fluoro-2-oxo-6-(trifluoromethyl)indolin-1-yl)methyl 3-(((2-(diethylamino)ethyl)(ethyl)amino)methyl)benzoate, hydrochloride] the melting point was 120 to 125 °C. With `COc1ccc(Cl)cc1[C@]1(F)C(=O)N(C(=O)N[C@H](C(=O)O)C(C)C)c2cc(C(F)(F)F)ccc21` [Example 39, (S)-2-((S)-3-(5-chloro-2-methoxyphenyl)-3-fluoro-2-oxo-6-(trifluoromethyl)-indoline-1-carboxamido)-3-methylbutanoic acid] the melting point was 100 to 104 °C. `CC[C@H](C)[C@H](NC(=O)N1C(=O)[C@@](F)(c2cc(Cl)ccc2OC)c2ccc(C(F)(F)F)cc21)C(=O)O` [Example 40, (2S,3S)-2-((S)-3-(5-chloro-2-methoxyphenyl)-3-fluoro-2-oxo-6-(trifluoromethyl)indoline-1-carboxamido)-3-methylpentanoic acid] showed a melting point of 88 to 92 °C. For `COc1ccc(Cl)cc1[C@]1(F)C(=O)N(COC(=O)c2ccc(CN3CCN(C)CC3)cc2)c2cc(C(F)(F)F)ccc21` (as salt: hydrochloride) [Example 25], the melting point was 265 to 269 °C (dec.). In the case of `COc1ccc(Cl)cc1[C@]1(F)C(=O)N(COC(=O)CN(C)C)c2cc(C(F)(F)F)ccc21` (as salt: hydrochloride) [Example 14, (S)-(3-(5-chloro-2-methoxyphenyl)-3-fluoro-2-oxo-6-(trifluoromethyl)indolin-1-yl)methyl 2-(dimethylamino)acetate, hydrochloride)], the melting point was 157 to 160 °C. With `COc1ccc(Cl)cc1[C@]1(F)C(=O)N(COC(=O)c2ccc(CN3CCOCC3)cc2)c2cc(C(F)(F)F)ccc21` (as salt: hydrochloride) [Example 23, (S)-(3-(5-chloro-2-methoxyphenyl)-3-fluoro-2-oxo-6-(trifluoromethyl)indolin-1-yl)methyl 4-(morpholinomethyl)benzoate, hydrochloride] the melting point was 174 to 178 °C. With `COc1ccc(Cl)cc1[C@]1(F)C(=O)N(C(=O)OCOC(=O)CCC(=O)O)c2cc(C(F)(F)F)ccc21` [Example 16, (S)-4-((3-(5-chloro-2-methoxyphenyl)-3-fluoro-2-oxo-6-(trifluoromethyl)indoline-1-carbonyloxy)methoxy)-4-oxobutanoic acid] the melting point was 68 to 71 °C (dec.). Molecule `COc1ccc(Cl)cc1[C@]1(F)C(=O)N(COC(=O)c2ccc(CN3CCCCC3)cc2)c2cc(C(F)(F)F)ccc21` (as salt: trifluoroacetate) [Example 31, (S)-4-Piperidin-1-ylmethyl-benzoic acid 3-(5-chloro-2-methoxy-phenyl)-3-fluoro-2-oxo-6-trifluoromethyl-2,3-dihydro-indol-1-ylmethyl ester, trifluoroacetate] has a melting point of 85 to 89 °C. `COc1ccc(Cl)cc1[C@]1(F)C(=O)N(C(=O)NC(C)(C)C(=O)O)c2cc(C(F)(F)F)ccc21` [Example 38, (S)-2-(3-(5-chloro-2-methoxyphenyl)-3-fluoro-2-oxo-6-(trifluoromethyl)-indoline-1-carboxamido)-2-methylpropanoic acid] showed a melting point of 107 to 110 °C.

System: traumatic brain injury (TBI)
Test: not given
Conditions: rat TBI model; Cheney, et al. 2001; cited from earlier work
In the case of `COc1ccc(Cl)cc1[C@]1(F)C(=O)Nc2cc(C(F)(F)F)ccc21` [Compound of Formula (S)-IV, (S)-3-(5-chloro-2-methoxyphenyl)-3-fluoro-6-(trifluoromethyl)-indolin-2-one], the “reductions in edema in regions adjacent to the impact zone” value is listed as “significant reductions in edema”.

System: cloned mammalian (mSlo or hSlo) BK channels heterologously expressed in Xenopus oocytes
Test: BK-mediated outward current in Xenopus oocytes, two-electrode voltage clamp
Assay type: cell-based
Conditions: 10 μM, at least 5 oocytes, steps from -60 mV to +140 mV
Experimental: (§1) The ability of the compound of Formula IV to open BK channels and increase whole-cell outward (K^+) BK-mediated currents was assessed under voltage-clamp conditions by determining their ability to increase cloned mammalian (mSlo or hSlo) BK-mediated outward current heterologously expressed in Xenopus oocytes [Butler, A., et al., Science, 261, pp. 221–224 (1993); and Dworetzky, S. I., et al., Mol. Brain Res., 27, pp. 189–193 (1994)]. The two BK constructs employed represent nearly structurally identical homologous proteins, and have proven to be pharmacologically identical in our tests. To isolate BK current from native (background, non-BK) current, the specific and potent BK channel-blocking toxin iberiotoxin (IBTX) [Galvez, A., et al., J. Biol. Chem, 265, pp. 11083–11090 (1990)] was employed at a supramaximal concentration (50 nM). The relative contribution of BK channels current to total outward current was determined by subtraction of the current remaining in the presence of IBTX (non-BK current) from the current profiles obtained in all other experimental conditions (control, drug, and wash). […] The compound of Formula IV was shown in at least 5 oocytes at a concentration of 10 μM to increase BK current to 170% of control of IBTX-sensitive current. […]
For `COc1ccc(Cl)cc1C1(F)C(=O)Nc2cc(C(F)(F)F)ccc21` (stereo not shown) [compound of Formula IV, 3-(5-chloro-2-methoxyphenyl)-3-fluoro-6-(trifluoromethyl)indolin-2-one], the “increase BK current to % of control of IBTX-sensitive current” value was 170 % of control.

System: not given
Test: not given
Conditions: cited from earlier work
In the case of `COc1ccc(Cl)cc1[C@]1(F)C(=O)Nc2cc(C(F)(F)F)ccc21` [Compound of Formula (S)-IV, (S)-3-(5-chloro-2-methoxyphenyl)-3-fluoro-6-(trifluoromethyl)-indolin-2-one], the aqueous solubility is given as “low aqueous solubility”.

System: non-BK native currents in the oocytes
Test: Effect on non-BK native currents in oocytes (current remaining in presence of IBTX)
Assay type: cell-based, Xenopus
Conditions: at the tested concentration
Experimental: as §1
In the case of `COc1ccc(Cl)cc1C1(F)C(=O)Nc2cc(C(F)(F)F)ccc21` (stereo not shown) [compound of Formula IV, 3-(5-chloro-2-methoxyphenyl)-3-fluoro-6-(trifluoromethyl)indolin-2-one], the “effect on non-BK native currents in the oocytes” value was “did not effect non-BK native currents”.

System: focal cerebral ischemia (MCAO)
Test: Focal stroke model: permanent MCA/CCA occlusion, cortical infarct volume
Assay type: in vivo, Wistar rat
Conditions: intravenously (0.3 mg//kg) single bolus two hours after MCA occlusion; vs vehicle-treated control; measured 24 hours after MCAO
Experimental: To determine the ability of the compounds of the present invention to reduce cell loss resulting from neuronal ischemia, a standard focal cerebral ischemia is induced by permanent occlusion of the left middle cerebral artery (MCA) and common carotid artery (CCA) with one hour occlusion of the right CCA in the Wistar rat. The surgeries are performed using the sub-temporal approach of A. Tamura, et al., J. Cereb. Blood Flow Metab., 1, pp. 53–60, (1981) and its modifications [K. Osborne, et al., J. Neurol Neurosurg. Psychiatry, 50, pp. 402–410 (1987) and S. Menzies, et al., Neurosurgery, 31, pp. 100–107, (1992).]
The compound of Formula IV was evaluated in the focal stroke model involving permanent occlusion of the left MCA (MCAO) and CCA (CCAO) and temporary occlusion of the right CCA in the Wistar rat [Gribkoff, et al. Nature Med. 7, pp. 471–477 (2001)]. This procedure results in a reliably large neocortical infarct volume that is measured by means of vital dye exclusion in serial slices through the brain 24 hours after MCAO. In the present test, compounds were administered using an i.v. or i.p. route of administration two hours after occlusion.
With `COc1ccc(Cl)cc1C1(F)C(=O)Nc2cc(C(F)(F)F)ccc21` (stereo not shown) [compound of Formula IV, 3-(5-chloro-2-methoxyphenyl)-3-fluoro-6-(trifluoromethyl)indolin-2-one] the “reduction of cortical infarct volume” value was “about 28%”.
